In general, inhibition refers to the percentage by which the read-out fell short of the control. A higher inhibition goes with a strong effect.

The structures appear in SMILES notation.

The target in the test is KRas G12D/Q61H double mutant (Homo sapiens (Human), UniProt P01116, G12D/Q61H). Kind of test: Ras GTP binding domain inhibition assay (labeled GTP). Particulars: 20 μM compound. The protocol:
Buffer-I: • 50 mM Tris, pH 7.5 • 150 mM NaCl (optional) • 1 mM MgCl2 • 1 mM DTT. • KRas G12D mutant protein was expressed as a His-tagged protein. Purified His-KRas G12D protein was diluted in buffer-I to a final concentration of 3-10 μg/ml. • 200 μl of the diluted His-KRas G12D protein was added to a nickel coated 96 well plate and incubated overnight at 4° C. • The next day, wells were washed 3× in 200 μl of Buffer-I. • Then 200 μl of Buffer-I were added to each well in the presence of 1% DMSO. • Tested compounds were added to the protein-coated wells at a concentration of 20 μM, and incubated for 3 hours at room temperature. […]
Then 22 μl of Cy3-GTP or Cy5-GTP was added to each well. The labeled GTP was incubated for 45 min. at room temperature. • Following GTP incubation, wells were washed 3× in Buffer-I, and 200 μl of Buffer-I were added to each well. • Following washes, the amount of bound labeled-GTP was measured with an Eppendorf AF2200 plate reader.
By substituting KRas G12D mutant protein with KRas G12C mutant, KRas wild type, KRas Q61H mutant, KRas G12D/Q61H double mutant or KRas G12C/Q61H double mutant under the assay conditions described above, KRas G12C mutant KRas wild type, KRas Q61H mutant, KRas G12D/Q61H double mutant and KRas G12C/Q61H double mutant inhibition, respectively, were each determined.

KRas G12D/Q61H double mutant, sequence (P01116-2 other isoform, or with tags, fused parts or gaps G12D/Q61H): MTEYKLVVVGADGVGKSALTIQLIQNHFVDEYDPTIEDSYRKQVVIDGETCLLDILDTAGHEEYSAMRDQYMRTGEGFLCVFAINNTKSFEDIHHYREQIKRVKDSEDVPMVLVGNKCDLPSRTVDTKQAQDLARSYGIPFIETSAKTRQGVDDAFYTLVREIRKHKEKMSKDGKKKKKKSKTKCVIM

With `COCCn1c(SC(C)c2nc(-c3cccnc3)no2)nc2cc(Cl)ccc2c1=O` (stereo not shown), the inhibition at 20 µM fell in the range of 1 to 25%.
